According to patent US8492310B2, “Herbicidal compositions containing benzoylpyrazole compounds” (priority 2008, dated 2013):
Read-outs that look alike come from different tables or passages of the source.

Experiments:
Assay type in all cases: in vivo
[1] = system: crabgrass (Digitaria sanguinalis L.); experiment: Foliar treatment pot test, visual growth inhibition rate, crabgrass (DS)
Text: (§1) When the herbicidal activity in a case where two active ingredients are combined, is larger than the simple sum of the respective herbicidal activities of the two active ingredients (the expected activity), it is called a synergistic effect. The activity expected by the combination of two active ingredients can be calculated as follows (Colby S. R., “Weed”, vol. 15, p. 20-22, 1967). E=α+β−(α×β÷100) where
(§2) Upland field soil was put into a 1/1,000,000 hectare pot, and seeds of various plants (barnyardgrass (Echinochloa crus-qalli L.), crabgrass (Digitaria sanguinalis L.), giant foxtail (Setaria faberi Herrm.), velvetleaf (Abutilon theophrasti MEDIC.) and prickly sida (Sida spinosa L.)) were sown. When the respective plants reached predetermined leaf stage, herbicidal compositions in predetermined amounts were diluted with water in an amount corresponding to 300 L/ha and applied for foliar treatment by a small sprayer.
(§3) Further, in accordance with the above Colby's formula, the growth inhibition rate (calculated value) was calculated. In Tables, with respect to the compound Q, Compound Nos. in Table 1 are described, and with respect to other herbicidal compounds, common names are described. Further, in Tables, barnyardgrass is represented by “EC”, crabgrass by “DS”, giant foxtail by “SF”, velvetleaf by “AT”, and prickly sida by “SS”.

[2] = system: velvetleaf (Abutilon theophrasti MEDIC.); experiment: Foliar treatment pot test, visual growth inhibition rate, velvetleaf (AT)
Text: as §1, §2, §3

[3] = system: prickly sida (Sida spinosa L.); experiment: Foliar treatment pot test, visual growth inhibition rate, prickly sida (SS); conditions: for inhibition at 15 g/ha: 1.5-2.4 leaf stage
Text: as §1, §2, §3

[4] = system: barnyardgrass (Echinochloa crus-qalli L.); experiment: Foliar treatment pot test, visual growth inhibition rate, barnyardgrass (EC); conditions: 4.0-5.0 leaf stage, read-out: Growth inhibition rate (%) of EC Measured value
Text: as §1, §2, §3

[5] = Digitaria sanguinalis, foliar, 552 h, 4.5-5.3 leaf stage, 23 DAT, read-out: Growth inhibition rate (%) of DS Measured value
[6] = Abutilon theophrasti, foliar, 552 h, 3.0-4.2 leaf stage, 23 DAT, read-out: Growth inhibition rate (%) of AT Measured value
[7] = Digitaria sanguinalis, foliar, 480 h, 4.5-5.2 leaf stage, 20 DAT, read-out: Growth inhibition rate (%) of DS Measured value
[8] = Abutilon theophrasti, foliar, 480 h, 4.2-4.3 leaf stage, 20 DAT, read-out: Growth inhibition rate (%) of AT Measured value
[9] = Digitaria sanguinalis, foliar, 480 h, 3.7-4.0 leaf stage, 20 DAT, read-out: Growth inhibition rate (%) of DS Measured value
[10] = Abutilon theophrasti, foliar, 480 h, 4.0-4.2 leaf stage, 20 DAT, read-out: Growth inhibition rate (%) of AT Measured value
[11] = Abutilon theophrasti, foliar, 528 h, 3.3-3.8 leaf stage, 22 DAT, read-out: Growth inhibition rate (%) of AT Measured value

## CCCCCCCC(=O)Oc1c(Br)cc(C#N)cc1Br [Bromoxynil-octanoate, bromoxynil-octanoate]
[1]; Digitaria sanguinalis, foliar, 336 h, 4.0-5.0 leaf stage, 14 DAT, read-out: Growth inhibition rate (%) of DS Measured value
  inhibition at 63 g/ha: 0%
[1]; Digitaria sanguinalis, foliar, 504 h, 4.0-5.1 leaf stage, 21 DAT, read-out: Growth inhibition rate (%) of DS Measured value
  inhibition at 63 g/ha: 0%
[1]; Digitaria sanguinalis, foliar, 528 h, 3.1-4.0 leaf stage, 22 DAT, 77 g/ha, read-out: Growth inhibition rate (%) of DS Measured value
  inhibition at 77 g/ha: 0%
[1]; Digitaria sanguinalis, foliar, 552 h, 4.5-5.3 leaf stage, 23 DAT, 30 g/ha, read-out: Growth inhibition rate (%) of DS Measured value
  inhibition at 30 g/ha: 25%
[1]; [5]
  inhibition at 60 g/ha: 10%
  inhibition at 120 g/ha: 45%
[2]; Abutilon theophrasti, foliar, 504 h, 3.0-3.5 leaf stage, 21 DAT, 63 g/ha, read-out: Growth inhibition rate (%) of AT Measured value
  inhibition at 63 g/ha: 10%
[2]; Abutilon theophrasti, foliar, 528 h, 4.0-4.3 leaf stage, 22 DAT, read-out: Growth inhibition rate (%) of AT Measured value
  inhibition at 100 g/ha: 25%
[2]; [6]
  inhibition at 30 g/ha: 0%
  inhibition at 60 g/ha: 0%
  inhibition at 120 g/ha: 0%
[2]; Abutilon theophrasti, foliar, 576 h, 3.2-4.1 leaf stage, 24 DAT, 200 g/ha, read-out: Growth inhibition rate (%) of AT Measured value
  inhibition at 200 g/ha: 100%
[3]; Sida spinosa, foliar, 528 h, 3.0-3.3 leaf stage, 22 DAT, 25 g/ha, read-out: Growth inhibition rate (%) of SS Measured value
  inhibition at 25 g/ha: 40%
[3]; Sida spinosa, foliar, 528 h, 3.0-3.3 leaf stage, 22 DAT, read-out: Growth inhibition rate (%) of SS Measured value
  inhibition at 50 g/ha: 50%
[3]; Sida spinosa, foliar, 528 h, 3.0-3.3 leaf stage, 22 DAT, 100 g/ha, read-out: Growth inhibition rate (%) of SS Measured value
  inhibition at 100 g/ha: 50%

## COc1c(Cl)ccc(Cl)c1C(=O)O [Dicamba, dicamba]
[1]; Digitaria sanguinalis, foliar, 312 h, 4.4-5.0 leaf stage, 13 DAT, read-out: Growth inhibition rate (%) of DS Measured value
  inhibition at 100 g/ha: 0%
[1]; [7]
  inhibition at 25 g/ha: 0%
  inhibition at 50 g/ha: 0%
  inhibition at 100 g/ha: 0%
[1]; Digitaria sanguinalis, foliar, 504 h, 5.0-5.5 leaf stage, 21 DAT, 200 g/ha, read-out: Growth inhibition rate (%) of DS Measured value
  inhibition at 200 g/ha: 0%
[1]; [5]
  inhibition at 60 g/ha: 55%
  inhibition at 120 g/ha: 75%
[2]; Abutilon theophrasti, foliar, 312 h, 3.3-4.2 leaf stage, 13 DAT, read-out: Growth inhibition rate (%) of AT Measured value
  inhibition at 100 g/ha: 35%
[2]; [8]
  inhibition at 25 g/ha: 25%
  inhibition at 50 g/ha: 35%
  inhibition at 100 g/ha: 43%
[2]; Abutilon theophrasti, foliar, 504 h, 3.5-4.3 leaf stage, 21 DAT, read-out: Growth inhibition rate (%) of AT Measured value
  inhibition at 100 g/ha: 55%
[2]; [6]
  inhibition at 60 g/ha: 0%
  inhibition at 120 g/ha: 0%
[4]; 336 h, 14 DAT, 200 g/ha
  inhibition at 200 g/ha: 0%

## CS(=O)(=O)c1ccc(C(=O)C2C(=O)CCCC2=O)c([N+](=O)[O-])c1 [Mesotrione]
[1]; [9]
  inhibition at 25 g/ha: 55%
  inhibition at 50 g/ha: 83%
[1]; Digitaria sanguinalis, foliar, 480 h, 5.1-5.2 leaf stage, 20 DAT, 12.5 g/ha, read-out: Growth inhibition rate (%) of DS Measured value
  inhibition at 12.5 g/ha: 80%
[2]; [10]
  inhibition at 25 g/ha: 23%
  inhibition at 50 g/ha: 35%
[2]; Abutilon theophrasti, foliar, 480 h, 4.1-4.2 leaf stage, 20 DAT, 12.5 g/ha, read-out: Growth inhibition rate (%) of AT Measured value
  inhibition at 12.5 g/ha: 75%
[2]; Abutilon theophrasti, foliar, 480 h, 4.1-4.2 leaf stage, 20 DAT, read-out: Growth inhibition rate (%) of AT Measured value
  inhibition at 25 g/ha: 94%
[2]; Abutilon theophrasti, foliar, 576 h, 3.2-4.1 leaf stage, 24 DAT, read-out: Growth inhibition rate (%) of AT Measured value
  inhibition at 15 g/ha: 88%
[4]; 504 h, 21 DAT, 15 g/ha
  inhibition at 15 g/ha: 5%

## COc1cc(OC)nc(NC(=O)NS(=O)(=O)c2ncccc2C(=O)N(C)C)n1 [Nicosulfuron, nicosulfuron]
[1]; Digitaria sanguinalis, foliar, 336 h, 3.5-4.3 leaf stage, 14 DAT, 5 g/ha, read-out: Growth inhibition rate (%) of DS Measured value
  inhibition at 5 g/ha: 15%
[1]; Digitaria sanguinalis, foliar, 504 h, 3.5 to 4.3 leaf stage, 21 DAT, 10 g/ha, read-out: Growth inhibition rate (%) of DS Measured value
  inhibition at 10 g/ha: 30%
[1]; Digitaria sanguinalis, foliar, 504 h, 4.5-5.1 leaf stage, 21 DAT, 20 g/ha, read-out: Growth inhibition rate (%) of DS Measured value
  inhibition at 20 g/ha: 50%
[1]; Digitaria sanguinalis, foliar, 504 h, 4.5-5.1 leaf stage, 21 DAT, 80 g/ha, read-out: Growth inhibition rate (%) of DS Measured value
  inhibition at 80 g/ha: 94%
[2]; Abutilon theophrasti, foliar, 480 h, 3.1-3.4 leaf stage, 20 DAT, 5 g/ha, read-out: Growth inhibition rate (%) of AT Measured value
  inhibition at 5 g/ha: 10%
[2]; Abutilon theophrasti, foliar, 504 h, 3.8-4.4 leaf stage, 21 DAT, read-out: Growth inhibition rate (%) of AT Measured value
  inhibition at 7 g/ha: 30%
[2]; Abutilon theophrasti, foliar, 504 h, 4.0-4.5 leaf stage, 21 DAT, 40 g/ha, read-out: Growth inhibition rate (%) of AT Measured value
  inhibition at 40 g/ha: 65%
[2]; Abutilon theophrasti, foliar, 504 h, 4.0-4.5 leaf stage, 21 DAT, read-out: Growth inhibition rate (%) of AT Measured value
  inhibition at 60 g/ha: 70%
[2]; Abutilon theophrasti, foliar, 504 h, 4.0-4.5 leaf stage, 21 DAT, 80 g/ha, read-out: Growth inhibition rate (%) of AT Measured value
  inhibition at 80 g/ha: 83%
[2]; [11]
  inhibition at 7 g/ha: 45%
  inhibition at 15 g/ha: 60%
  inhibition at 30 g/ha: 70%
[2]; Abutilon theophrasti, foliar, 528 h, 4.0-4.4 leaf stage, 22 DAT, 10 g/ha, read-out: Growth inhibition rate (%) of AT Measured value
  inhibition at 10 g/ha: 40%
[3]; Sida spinosa, foliar, 480 h, 20 DAT, read-out: Growth inhibition rate (%) of SS Measured value
  inhibition at 15 g/ha: 45%
[3]; Sida spinosa, foliar, 504 h, 21 DAT, read-out: Growth inhibition rate (%) of SS Measured value
  inhibition at 15 g/ha: 45%
[3]; Sida spinosa, foliar, 504 h, 2.1 to 3.1 leaf stage, 21 DAT, 2.5 g/ha, read-out: Growth inhibition rate (%) of SS Measured value
  inhibition at […]: 0%
[3]; Sida spinosa, foliar, 504 h, 2.1 to 3.1 leaf stage, 21 DAT, 5 g/ha, read-out: Growth inhibition rate (%) of SS Measured value
  inhibition at 5 g/ha: 0%
[3]; Sida spinosa, foliar, 504 h, 2.1 to 3.1 leaf stage, 21 DAT, 10 g/ha, read-out: Growth inhibition rate (%) of SS Measured value
  inhibition at 10 g/ha: 10%
[3]; Sida spinosa, foliar, 504 h, 2.1 to 3.1 leaf stage, 21 DAT, 20 g/ha, read-out: Growth inhibition rate (%) of SS Measured value
  inhibition at 20 g/ha: 40%
[3]; Sida spinosa, foliar, 504 h, 2.1 to 3.1 leaf stage, 21 DAT, 30 g/ha, read-out: Growth inhibition rate (%) of SS Measured value
  inhibition at 30 g/ha: 50%
[3]; Sida spinosa, foliar, 504 h, 2.1 to 3.1 leaf stage, 21 DAT, read-out: Growth inhibition rate (%) of SS Measured value
  inhibition at 50 g/ha: 70%

## CCc1cccc(C)c1N(C(=O)CCl)[C@@H](C)COC [S-Metolachlor, S-metolachlor]
[1]; 3.5-4.3 leaf stage, 21 DAT, 400 g/ha
  Growth inhibition rate (%) of DS Measured value: 0%
[1]; 4.0-5.0 leaf stage, 14 DAT, 150 g/ha
  Growth inhibition rate (%) of DS Measured value: 0%
[1]; 4.0-5.1 leaf stage, 21 DAT, 300 g/ha
  Growth inhibition rate (%) of DS Measured value: 0%
[1]; 5.0-6.0 leaf stage, 14 DAT, 800 g/ha
  Growth inhibition rate (%) of DS Measured value: 0%
[2]; 3.0-3.5 leaf stage, 21 DAT, 300 g/ha
  Growth inhibition rate (%) of AT Measured value: 0%
[2]; 3.0-3.8 leaf stage, 21 DAT, 400 g/ha
  Growth inhibition rate (%) of AT Measured value: 0%
[2]; 3.0-4.0 leaf stage, 14 DAT, 150 g/ha
  Growth inhibition rate (%) of AT Measured value: 0%
[2]; 4.6-5.3 leaf stage, 14 DAT, 1200 g/ha
  Growth inhibition rate (%) of AT Measured value: 0%
[3]; 3.0-3.3 leaf stage, 21 DAT, 800 g/ha
  Growth inhibition rate (%) of SS Measured value: 20%
